Laboratory results reported in publication PMC6600393, “Synthesis and Cytostatic Effect of 3’-deoxy-3’-C-Sulfanylmethyl Nucleoside Derivatives with D-xylo Configuration” (Molecules, 2019).

Key:
SCC = system: SCC; parameters: method as in PMID 20947470; details: positive control; ref [36]; cited from earlier work
HaCaT cells [1] = assay: Time-lapse video-microscopy: generation time, HaCaT; type: cell-based, human
Experimental: (§1) Dynamic functional and morphological effects of compound 10 was investigated via time-lapse (1 frame/min) videomicroscopy under standard cell-breeding conditions. Low intensity, near-infrared (NIR) 940 nm illumination was used, for reduced phototoxicity. Parallel experiments were done in the same CO2 incubator, using two custom-built inverted microscope equipped with sensitive charge-coupled device (CCD) sensors. […] Image sequences were processed and quantitatively analyzed using NIH ImageJ open-source software-bundle. Cell size, cellular generation time, and cell growth of HaCaT and SCC cells were analyzed. Time-lapse video-microscopy record about the effect of 10 and DMSO control on HaCaT and SCC cell lines are available in Supplementary Materials.
For the investigation of the effect of compound 10 on cell-cycle, cellular generation times were measured from time-lapse image sequences.
In LTS video-microscopy studies, ~500.000/350.000 starting cell numbers (T-25 cell culture flask) had been used. Cell cultures had been treated with compound 10 using the IC50 concentration corresponding to the SCC VII.
TLS system architecture: Using the TLS system, various parameters had been tested. Control, DMSO control, and IC50 concentration of compound 10 compared to the above. Based on literature data, 1% (v/v) is the amount that is tolerated even without significant change in cells. […]

HaCaT cells [2] = assay: DAPI fluorescent microscopy of nucleus morphology, HaCaT; type: cell-based, human; details: 17.0 µM, 48 h, vs DMSO control
Experimental: (§2) In our experiments 4’,6-diamidino-2-phenylindole (DAPI) fluorescent DNA dye has been used for studying the cell nucleus morphology as an indicator of genotoxicity. The HaCaT and SCC cells were treated with DMSO and compound 10, fixed and stained with DAPI, then examined with fluorescent microscopy (Figure 7 and Figure 8).
(§3) For fluorescence staining, cells were breeded in the ibidi microscope slide chamber. The sample preparation process was similar to that of TLS studies, except that after 48 h the samples were fixed with PFA and washed with PBS and left to dry at room temperature overnight. DAPI dye was used for fluorescencnt labbelling of A-T rich regions of DNA.
(§4) Dehydrated slides containing fixated cells were mounted in 35 μL DAPI-Antifade Medium under 24 × […] coverslips. Fluorescence of DAPI (4′,6-diamidino-2-phenylindole) was monitored by fluorescence microscopy (Carl Zeiss Compound Universal Microscope III RS).

HaCaT cells [3] = assay: Time-lapse video-microscopy: mother cell size, HaCaT; type: cell-based, human
Experimental: as §1, with “Materials. […]” for “Materials.”
Mother cells size measurement: • Opening the image sequence in 8-bit format. • Stack Deflicker: The Stack Deflicker calculates the average grey value for each frame and normalizes all frames so that they have the same average grey level as a specified frame of the stack. […] If a region of the stack is selected the average frame intensity will be calculated from this region. • Changing the brightness/contrast, if it is neccesary. • Subtrack background: Removes smooth continuous backgrounds from gels and other images. […]

[4] = system: HaCaT (human keratinocyte) cell line; assay: MTT cell viability assay on HaCaT cells; type: cell-based; details: Homo sapiens, HaCaT, 48 h
Experimental: (§5) For the investigation of the cytotoxic effect of nucleoside analogues we used healthy human keratinocyte (HaCaT) and tumorous squamous carcinoma SCC-VII cell lines. In the experiments, a standard citotoxicity assay, the MTT assay, was used in a 96-well plate. Importantly, different cell numbers were used in the case of the two different cell lines. The HaCaT cells were seeded 10^4/well concentration while the SCC-VII cells were seeded 5000/well concentration on the plate. In both cases the cells were treated with the nucleoside analogues at ~50% confluence.
The HaCaT cell line was derived from human skin, the cells spontaneously transformed in vitro during long time incubation. Cells were cultured in DMEM medium (Biocenter, Szeged, Hungary) containing 10% fetal bovine serum (FBS, Hyclon, Logan, UT) and 1% antibiotic-antimycotic mix (Penicillin–Streptomycin–Neomycin).
(§6) Cell cultures had been kept under the same conditions during the experiments. Cells were stored at 37 °C, 95% humidity, and 5% CO2 in an incubator. During the MTT-assay, different starter cell number was used because of the cell cycle differences; HaCaT was started with 10.000/well meanwhile SCC VII with 5000/well. After passage, 24 h was assured for the cells to the adhesion. Then incubated with the compounds for 48 h. The experiments were performed in 96 well plates.
(§7) For the dilution of different concentrations of nucleoside analogues were prepared with DMSO 1% (v/v) and DMEM / DMEM-F12/Ham’s F12 cell culture medium.
(§8) After three days of incubation in the cell culture flask, cells were trypsinised into single cell suspensions. Aliquots (200 μL) of each cell suspension were placed in wells of 96-well-plates (Biocenter, Szeged, Hungary). Preliminary tests were conducted with cell numbers 5000 (SCC-VII) and 10,000 (HaCaT) per well. We have been tested five concentrations of each nucleoside analogues (20-10-5-2.5-1.25 µg/mL). The nucleoside analogues were dissolved in DMSO (1 v/v%) and DMEM/ DMEM-F12/Ham’s F12 were added to the wells to produce the required concentrations and the cells were similarly incubated for a further 48 h.
(§9) MTT (Sigma Aldrich, Budapest, Hungary) solution (0.5 mg/mL in PBS) 100 µL was added to each well. The plates were incubated for 1–2 h at 37 ^◦C, the wells aspirated, and MTT formazan extracted with 100 µL of DMSO aided by gentle agitation on a shaker. After 10 min at room temperature, the absorbances were read at 570 nm by an automatic plate reader (WALLAC Victor 2 1420 spectrophotometer), the instrument having been blanked beforehand on a row to which cells had not been added. Percentage viability (respiratory competence) of the population of cells in each well was expressed as: (Absorbance of treated cells/Absorbance of control cells) × 100. IC50 values of the nucleoside analogues were determined by Graphpad.

SCC cells [5] = assay: Time-lapse video-microscopy: mother cell size, SCC; type: cell-based, mouse
Experimental: as §1
Each cell line was treated with 17.0 µM solution of compound 10, dissolved in 1% (v/v) DMSO and diluted with cell culture media before application. Then, 1% (v/v) DMSO was used as control. […]
Mother cells size measurement: • Opening the image sequence in 8-bit format. • Stack Deflicker: The Stack Deflicker calculates the average grey value for each frame and normalizes all frames so that they have the same average grey level as a specified frame of the stack. […] If a region of the stack is selected the average frame intensity will be calculated from this region. • Changing the brightness/contrast, if it is neccesary. • Subtrack background: Removes smooth continuous backgrounds from gels and other images. […] A ball of given radius is rolled over the bottom side of this surface; the hull of the volume reachable by the ball is the background to be subtracted. • Treshold: Use this tool to automatically or interactively set lower and upper threshold values, segmenting grayscale images into features of interest and background. • Divided cells were selected on the binary image sequence based on their circularity determined by area/perimeter ratio. • Bigger pre-division mother cells were separated from smaller post-division daughter cells. • Pixel size was calibrated with Burker chamber. • Area calculation from pixel^2 to µm^2.

SCC cells [6] = assay: DAPI fluorescent microscopy of nucleus morphology, SCC; type: cell-based, mouse; details: 17.0 µM, 48 h, vs DMSO control
Experimental: as §2, §3, §4

[7] = system: SCC-VII (mouse squamous carcinoma) cell line; assay: MTT cell viability assay on SCC-VII cells; type: cell-based
Experimental: as §5
SCC-VII is a carcinoma tumor that originally arose in the abdominal wall of C3H mice in Dr. Herman Suit’s laboratory at Harvard University, Boston, Massachusetts. SCC VII cells were grown in Dulbecco’s Modified Eagle’s Medium Nutrient Mixture (DMEM-HAM’S F12) (Sigma-Aldrich) supplemented with 2 mM L-glutamine, 23 mM NaHCO3, 100 U/mL penicillin, 100 U/mL streptomycin 1% non-essential amino acids and 10% fetal bovine serum.
as §6, §7, §8, §9

Structure (SMILES) | IC50 (SCC) [µM] | Treated/DMSO Difference (generation time) (HaCaT cells [1]; 17.0 µM) [%] | Treated Cells Gen. Time (HaCaT cells [1]; 17.0 µM compound 10, n = 15) [h] | nucleus morphology (DAPI) (HaCaT cells [2]) | mother cell size-reduction vs. DMSO (HaCaT cells [3]; 17.0 µM) [%] | Treated Cells Size (mother cells) (HaCaT cells [3]; 17.0 µM compound 10, n = 15) [µm^2] | IC50 [4] [µM] | overall size change difference between the two cell lines (SCC cells [5]; HaCaT vs SCC mother cells, 17.0 µM) | Treated Cells Size (mother cells) (SCC cells [5]; SCC, 17.0 µM compound 10, n = 15) [µm^2] | Treated/DMSO Difference (mother cell size) (SCC cells [5]; SCC, 17.0 µM, (treated cells size/DMSO control cell size)*100-100) [%] | nucleus morphology (DAPI), genotoxicity (SCC cells [6]) | SI (selectivity index) ([7]; HaCaT IC50/SCC IC50) | IC50 ([7]; Mus musculus, 48 h) [µM]
O=c1[nH]cc(F)c(=O)[nH]1 [Compound 5-FU, 5-fluorouracil] | 60.7 ± 8.45 |  |  |  |  |  |  |  |  |  |  |  | 
CCCCSC[C@@H]1[C@@H](O[Si](C)(C)C(C)(C)C)[C@H](n2cc(C)c(=O)[nH]c2=O)O[C@@H]1CO[Si](C)(C)C(C)(C)C [Compound 10, 1-[3’-Deoxy-3’-C-(n-butylsulfanylmethyl)-2’,5’-di-O-(tert-butyldimethylsilyl)-β-D-xylofuranosyl]-thymine] |  | 20.8 | 21.67 ± 1.01 | no apparent difference | 9 | 21.60 ± 1.93 | 27.9 ± 1.85 | ~ 21% | 21.44 ± 1.42 | 12.8 | genotoxic effect | 1.64 | 17 ± 1.55
